Experiments:
Experiment in all cases: relative viability (nuclei count vs DMSO), 5 days (fraction); higher = more cells survive
Elesclomol + Alpelisib = compound: CN(NC(=O)CC(=O)NN(C)C(=S)c1ccccc1)C(=S)c1ccccc1 [Elesclomol] + Cc1nc(NC(=O)N2CCC[C@H]2C(N)=O)sc1-c1ccnc(C(C)(C)C(F)(F)F)c1 [Alpelisib] (partner 2 µM)
Summary of the method: (§1)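 Lung cancer cell lines in 1536-well plates got either a single drug or a fixed anchor-drug dose together with five library-drug doses (not always all listed) in √10 steps, by pin tool, on the day after seeding. Nuclei were counted after 5 days, and relative viability is the treated-to-vehicle ratio of nuclei counts. Values are medians of duplicate plates.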

Elesclomol + Pemetrexed = compound: CN(NC(=O)CC(=O)NN(C)C(=S)c1ccccc1)C(=S)c1ccccc1 [Elesclomol] + Nc1nc2[nH]cc(CCc3ccc(C(=O)N[C@@H](CCC(=O)O)C(=O)O)cc3)c2c(=O)[nH]1 [Pemetrexed] (partner 0.2 µM)
Summary of the method: as §1

Elesclomol + Decitabine = compound: CN(NC(=O)CC(=O)NN(C)C(=S)c1ccccc1)C(=S)c1ccccc1 [Elesclomol] + Nc1ncn([C@H]2C[C@H](O)[C@@H](CO)O2)c(=O)n1 [Decitabine] (partner 2 µM)
Summary of the method: as §1

Elesclomol + Vorinostat = compound: CN(NC(=O)CC(=O)NN(C)C(=S)c1ccccc1)C(=S)c1ccccc1 [Elesclomol] + O=C(CCCCCCC(=O)Nc1ccccc1)NO [Vorinostat] (partner 1 µM)
Summary of the method: as §1

Elesclomol + Olaparib = compound: CN(NC(=O)CC(=O)NN(C)C(=S)c1ccccc1)C(=S)c1ccccc1 [Elesclomol] + O=C(c1cc(Cc2n[nH]c(=O)c3ccccc23)ccc1F)N1CCN(C(=O)C2CC2)CC1 [Olaparib] (partner 8 µM)
Summary of the method: as §1

Row | Cell Line | relative viability (Elesclomol + Alpelisib; first compound 0.003162 µM) | relative viability (Elesclomol + Alpelisib; first compound 0.01 µM) | relative viability (Elesclomol + Alpelisib; first compound 0.03162 µM) | relative viability (Elesclomol + Alpelisib; first compound 0.1 µM) | relative viability (Elesclomol + Pemetrexed; first compound 0.003162 µM) | relative viability (Elesclomol + Pemetrexed; first compound 0.01 µM) | relative viability (Elesclomol + Pemetrexed; first compound 0.03162 µM) | relative viability (Elesclomol + Pemetrexed; first compound 0.1 µM) | relative viability (Elesclomol + Decitabine; first compound 0.003162 µM) | relative viability (Elesclomol + Decitabine; first compound 0.01 µM) | relative viability (Elesclomol + Decitabine; first compound 0.03162 µM) | relative viability (Elesclomol + Decitabine; first compound 0.1 µM) | relative viability (Elesclomol + Vorinostat; first compound 0.003162 µM) | relative viability (Elesclomol + Vorinostat; first compound 0.01 µM) | relative viability (Elesclomol + Vorinostat; first compound 0.03162 µM) | relative viability (Elesclomol + Vorinostat; first compound 0.1 µM) | relative viability (Elesclomol + Olaparib; first compound 0.003162 µM) | relative viability (Elesclomol + Olaparib; first compound 0.01 µM) | relative viability (Elesclomol + Olaparib; first compound 0.03162 µM) | relative viability (Elesclomol + Olaparib; first compound 0.1 µM)
1 | LXF-289 | 1.05 | 0.977 | 0.979 | 0.686 | 0.894 | 0.971 | 0.867 | 0.552 | 0.395 | 0.39 | 0.389 | 0.253 | 0.79 | 0.779 | 0.706 | 0.483 | 1.11 | 1.01 | 0.939 | 0.544
2 | BEN | 0.873 | 0.351 | 0.338 | 0.242 | 0.888 | 0.68 | 0.408 | 0.319 | 0.677 | 0.483 | 0.419 | 0.333 | 0.585 | 0.563 | 0.448 | 0.385 | 0.828 | 0.68 | 0.656 | 0.362
3 | NCI-H2023 | 0.604 | 0.236 | 0.269 | 0.074 | 0.172 | 0.128 | 0.0613 | 0.0421 | 0.219 | 0.181 | 0.0903 | 0.0614 | 0.418 | 0.0842 | 0.0465 | 0.0461 | 0.465 | 0.272 | 0.143 | 0.102
4 | NCI-H661 | 0.619 | 0.387 | 0.2 | 0.234 | 0.884 | 0.596 | 0.38 | 0.331 | 0.58 | 0.468 | 0.296 | 0.239 | 0.768 | 0.565 | 0.304 | 0.26 | 0.702 | 0.464 | 0.271 | 0.186
5 | NCI-H1355 | 0.832 | 0.636 | 0.466 | 0.16 | 1.02 | 0.992 | 0.721 | 0.206 | 0.352 | 0.336 | 0.268 | 0.2 | 0.617 | 0.524 | 0.418 | 0.213 | 0.724 | 0.648 | 0.347 | 0.209
6 | NCI-H1793 | 0.759 | 0.654 | 0.768 | 0.164 | 0.833 | 0.643 | 0.855 | 0.102 | 0.44 | 0.387 | 0.454 | 0.126 | 0.808 | 0.623 | 0.613 | 0.117 | 0.818 | 0.692 | 0.386 | 0.0938
7 | COR-L 105 | 1.11 | 0.712 | 0.409 | 0.256 | 1.13 | 1.17 | 0.392 | 0.27 | 0.666 | 0.465 | 0.337 | 0.303 | 1 | 0.57 | 0.361 | 0.336 | 0.713 | 0.575 | 0.365 | 0.275
8 | NCI-H838 | 1.13 | 0.892 | 0.967 | 0.706 | 0.254 | 0.217 | 0.252 | 0.195 | 0.469 | 0.433 | 0.403 | 0.249 | 0.723 | 0.706 | 0.609 | 0.303 | 0.765 | 0.721 | 0.488 | 0.215
